What was measured:
GRK5 = molecular target: T1, GRK5 (Homo sapiens, UniProt P34947); assay: KinaseProfiler GRK5; format: biochemical; details: 10 μM, ATP near Km
T1 construct: purchased Millipore, Inc. (KinaseProfiler service)
Text: (§1) The compound was run in duplicate at a concentration of ATP near the Km for each individual kinase according to Millipore's specifications.

MSK2 = molecular target: T2, MSK2 (Homo sapiens, UniProt O75676); assay: KinaseProfiler MSK2; format: biochemical; details: 10 μM, ATP near Km
T2 construct: purchased Millipore, Inc. (KinaseProfiler service)
Text: as §1

PTK5 = molecular target: T3, PTK5 (Homo sapiens, UniProt P42685); assay: KinaseProfiler PTK5; format: biochemical; details: 10 μM, ATP near Km
T3 construct: purchased Millipore, Inc. (KinaseProfiler service)
Text: as §1

DAPK1 = molecular target: T4, DAPK1 (Homo sapiens, UniProt P53355); assay: KinaseProfiler DAPK1; format: biochemical; details: 10 μM, ATP near Km
T4 construct: purchased Millipore, Inc. (KinaseProfiler service)
Text: as §1

CSK = molecular target: T5, CSK (Homo sapiens, UniProt P41240); assay: KinaseProfiler CSK; format: biochemical; details: 10 μM, ATP near Km
T5 construct: purchased Millipore, Inc. (KinaseProfiler service)
Text: as §1

BrSK1 = molecular target: T6, BrSK1 (Homo sapiens, UniProt Q8TDC3); assay: KinaseProfiler BrSK1; format: biochemical; details: 10 μM, ATP near Km
T6 construct: purchased Millipore (KinaseProfiler service)
Text: as §1

IRR = molecular target: T7, IRR (Homo sapiens, UniProt P14616); assay: KinaseProfiler IRR; format: biochemical; details: 10 μM, ATP near Km
T7 construct: purchased Millipore, Inc. (KinaseProfiler service)
Text: as §1

ALK = molecular target: T8, ALK (Homo sapiens, UniProt Q9UM73); assay: KinaseProfiler ALK; format: biochemical; details: 10 μM, ATP near Km
T8 construct: purchased Millipore (KinaseProfiler service)
Text: as §1

IKKbeta = molecular target: T9, IKKbeta (Homo sapiens, UniProt O14920); assay: KinaseProfiler IKKbeta; format: biochemical; details: 10 μM, ATP near Km
T9 construct: purchased Millipore, Inc. (KinaseProfiler service)
Text: as §1

BTK = molecular target: T10, BTK (Homo sapiens, UniProt Q06187); assay: KinaseProfiler BTK; format: biochemical; details: 10 μM, ATP near Km
T10 construct: purchased Millipore (KinaseProfiler service)
Text: as §1

CDK3/cyclinE = molecular target: T11, CDK3/cyclinE (Homo sapiens, UniProt Q00526); assay: KinaseProfiler CDK3/cyclinE; format: biochemical; details: 10 μM, ATP near Km
T11 construct: purchased Millipore, Inc. (KinaseProfiler service)
Text: as §1

MST2 = molecular target: T12, MST2 (Homo sapiens, UniProt Q13188); assay: KinaseProfiler MST2; format: biochemical; details: 10 μM, ATP near Km
T12 construct: purchased Millipore, Inc. (KinaseProfiler service)
Text: as §1

Rse = molecular target: T13, Rse (Homo sapiens, UniProt Q06418); assay: KinaseProfiler Rse; format: biochemical; details: 10 μM, ATP near Km
T13 construct: purchased Millipore, Inc. (KinaseProfiler service)
Text: as §1

[1] = molecular target: T14, His-tagged recombinant human TrkA (Homo sapiens, UniProt P04629); assay: TrkA LanthaScreen Eu Kinase Binding Assay
T14 construct: 6HIS tagged cytoplasmic domain from Invitrogen, Cat. No. PV3144; purchased Invitrogen PV3144
Procedure: TrkA binding activity was determined in a TrkA LanthaScreen™ Eu Kinase Binding Assay. […] Three fold serial dilutions of compounds of the invention in DMSO were added to a final percentage of 2% DMSO. […] The percent of control was calculated using a ratiometric emission factor. The IC50 values were determined by fitting a four parameter model to the percent of control data.

LKB1 = molecular target: T15, LKB1 (Homo sapiens, UniProt Q15831); assay: KinaseProfiler LKB1; format: biochemical; details: 10 μM, ATP near Km
T15 construct: purchased Millipore, Inc. (KinaseProfiler service)
Text: as §1

DRAK1 = molecular target: T16, DRAK1 (Homo sapiens, UniProt Q9UEE5); assay: KinaseProfiler DRAK1; format: biochemical; details: 10 μM, ATP near Km
T16 construct: purchased Millipore, Inc. (KinaseProfiler service)
Text: as §1

Plk2 = molecular target: T17, Plk2 (Homo sapiens, UniProt Q9NYY3); assay: KinaseProfiler Plk2; format: biochemical; details: 10 μM, ATP near Km
T17 construct: purchased Millipore, Inc. (KinaseProfiler service)
Text: as §1

PKCeta = molecular target: T18, PKCeta (Homo sapiens, UniProt P24723); assay: KinaseProfiler PKCeta; format: biochemical; details: 10 μM, ATP near Km
T18 construct: purchased Millipore, Inc. (KinaseProfiler service)
Text: as §1

NEK2 = molecular target: T19, NEK2 (Homo sapiens, UniProt P51955); assay: KinaseProfiler NEK2; format: biochemical; details: 10 μM, ATP near Km
T19 construct: purchased Millipore, Inc. (KinaseProfiler service)
Text: as §1

MuSK = molecular target: T20, MuSK (Homo sapiens, UniProt O15146); assay: KinaseProfiler MuSK; format: biochemical; details: 10 μM, ATP near Km
T20 construct: purchased Millipore, Inc. (KinaseProfiler service)
Text: as §1

Met = molecular target: T21, Met (Homo sapiens, UniProt P08581); assay: KinaseProfiler Met; format: biochemical; details: 10 μM, ATP near Km
T21 construct: purchased Millipore, Inc. (KinaseProfiler service)
Text: as §1

CK2alpha2 = molecular target: T22, CK2alpha2 (Homo sapiens, UniProt P19784); assay: KinaseProfiler CK2alpha2; format: biochemical; details: 10 μM, ATP near Km
T22 construct: purchased Millipore, Inc. (KinaseProfiler service)
Text: as §1

PRKG1alpha = molecular target: T23, PRKG1alpha (Homo sapiens, UniProt Q13976); assay: KinaseProfiler PRKG1alpha; format: biochemical; details: 10 μM, ATP near Km
T23 construct: purchased Millipore, Inc. (KinaseProfiler service)
Text: as §1

eEF-2K = molecular target: T24, eEF-2K (Homo sapiens, UniProt O00418); assay: KinaseProfiler eEF-2K; format: biochemical; details: 10 μM, ATP near Km
T24 construct: purchased Millipore, Inc. (KinaseProfiler service)
Text: as §1

VRK2 = molecular target: T25, VRK2 (Homo sapiens, UniProt Q86Y07); assay: KinaseProfiler VRK2; format: biochemical; details: 10 μM, ATP near Km
T25 construct: purchased Millipore, Inc. (KinaseProfiler service)
Text: as §1

GSK3beta = molecular target: T26, GSK3beta (Homo sapiens, UniProt P49841); assay: KinaseProfiler GSK3beta; format: biochemical; details: 10 μM, ATP near Km
T26 construct: purchased Millipore, Inc. (KinaseProfiler service)
Text: as §1

GRK7 = molecular target: T27, GRK7 (Homo sapiens, UniProt Q8WTQ7); assay: KinaseProfiler GRK7; format: biochemical; details: 10 μM, ATP near Km
T27 construct: purchased Millipore, Inc. (KinaseProfiler service)
Text: as §1

ALK4 = molecular target: T28, ALK4 (Homo sapiens, UniProt P36896); assay: KinaseProfiler ALK4; format: biochemical; details: 10 μM, ATP near Km
T28 construct: purchased Millipore (KinaseProfiler service)
Text: as §1

ULK3 = molecular target: T29, ULK3 (Homo sapiens, UniProt Q6PHR2); assay: KinaseProfiler ULK3; format: biochemical; details: 10 μM, ATP near Km
T29 construct: purchased Millipore, Inc. (KinaseProfiler service)
Text: as §1

MKK7beta = molecular target: T30, MKK7beta (Homo sapiens, UniProt O14733); assay: KinaseProfiler MKK7beta; format: biochemical; details: 10 μM, ATP near Km
T30 construct: purchased Millipore, Inc. (KinaseProfiler service)
Text: as §1

DDR2 = molecular target: T31, DDR2 (Homo sapiens, UniProt Q16832); assay: KinaseProfiler DDR2; format: biochemical; details: 10 μM, ATP near Km
T31 construct: purchased Millipore, Inc. (KinaseProfiler service)
Text: as §1

p38delta = molecular target: T32, p38delta (Homo sapiens, UniProt O15264); assay: KinaseProfiler p38delta; format: biochemical; details: 10 μM, ATP near Km
T32 construct: purchased Millipore, Inc. (KinaseProfiler service)
Text: as §1

NEK3 = molecular target: T33, NEK3 (Homo sapiens, UniProt P51956); assay: KinaseProfiler NEK3; format: biochemical; details: 10 μM, ATP near Km
T33 construct: purchased Millipore, Inc. (KinaseProfiler service)
Text: as §1

CDK9/cyclinT1 = molecular target: T34, CDK9/cyclinT1 (Homo sapiens, UniProt P50750); assay: KinaseProfiler CDK9/cyclinT1; format: biochemical; details: 10 μM, ATP near Km
T34 construct: purchased Millipore, Inc. (KinaseProfiler service)
Text: as §1

Rsk2 = molecular target: T35, Rsk2 (Homo sapiens, UniProt P51812); assay: KinaseProfiler Rsk2; format: biochemical; details: 10 μM, ATP near Km
T35 construct: purchased Millipore, Inc. (KinaseProfiler service)
Text: as §1

off-target kinases = details: 10 μM
Text: as §1

PAK5 = molecular target: T36, PAK5 (Homo sapiens, UniProt Q9P286); assay: KinaseProfiler PAK5; format: biochemical; details: 10 μM, ATP near Km
T36 construct: purchased Millipore, Inc. (KinaseProfiler service)
Text: as §1

FGFR1 = molecular target: T37, FGFR1 (Homo sapiens, UniProt P11362); assay: KinaseProfiler FGFR1; format: biochemical; details: 10 μM, ATP near Km
T37 construct: purchased Millipore, Inc. (KinaseProfiler service)
Text: as §1

Fgr = molecular target: T38, Fgr (Homo sapiens, UniProt P09769); assay: KinaseProfiler Fgr; format: biochemical; details: 10 μM, ATP near Km
T38 construct: purchased Millipore, Inc. (KinaseProfiler service)
Text: as §1

EphB4 = molecular target: T39, EphB4 (Homo sapiens, UniProt P54760); assay: KinaseProfiler EphB4; format: biochemical; details: 10 μM, ATP near Km
T39 construct: purchased Millipore, Inc. (KinaseProfiler service)
Text: as §1

T29 sequence (Q6PHR2 whole entry): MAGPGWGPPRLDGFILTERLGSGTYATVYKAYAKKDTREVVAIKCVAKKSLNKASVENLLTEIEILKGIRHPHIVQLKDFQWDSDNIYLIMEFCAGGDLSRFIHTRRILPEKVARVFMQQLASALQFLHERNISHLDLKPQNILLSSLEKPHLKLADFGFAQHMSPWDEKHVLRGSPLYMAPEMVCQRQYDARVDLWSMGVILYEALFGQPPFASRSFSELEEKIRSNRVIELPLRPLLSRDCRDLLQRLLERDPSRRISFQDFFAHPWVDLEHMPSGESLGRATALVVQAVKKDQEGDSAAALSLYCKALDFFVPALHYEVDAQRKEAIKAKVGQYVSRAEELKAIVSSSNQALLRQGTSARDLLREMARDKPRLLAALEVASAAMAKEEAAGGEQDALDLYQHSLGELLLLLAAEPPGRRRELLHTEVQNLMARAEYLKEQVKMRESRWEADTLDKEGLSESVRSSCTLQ
T16 sequence (Q9UEE5 whole entry): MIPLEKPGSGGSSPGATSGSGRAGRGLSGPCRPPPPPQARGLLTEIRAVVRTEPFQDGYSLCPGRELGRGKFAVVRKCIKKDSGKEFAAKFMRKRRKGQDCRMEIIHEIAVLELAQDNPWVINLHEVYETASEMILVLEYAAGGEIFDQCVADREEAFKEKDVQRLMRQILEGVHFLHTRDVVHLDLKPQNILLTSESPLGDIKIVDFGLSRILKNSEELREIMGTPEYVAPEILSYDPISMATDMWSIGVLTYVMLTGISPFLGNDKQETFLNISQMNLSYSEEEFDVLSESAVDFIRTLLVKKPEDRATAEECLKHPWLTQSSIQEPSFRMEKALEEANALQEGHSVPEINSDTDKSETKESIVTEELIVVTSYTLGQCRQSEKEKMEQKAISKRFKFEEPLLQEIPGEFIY
T13 sequence (Q06418 41-890): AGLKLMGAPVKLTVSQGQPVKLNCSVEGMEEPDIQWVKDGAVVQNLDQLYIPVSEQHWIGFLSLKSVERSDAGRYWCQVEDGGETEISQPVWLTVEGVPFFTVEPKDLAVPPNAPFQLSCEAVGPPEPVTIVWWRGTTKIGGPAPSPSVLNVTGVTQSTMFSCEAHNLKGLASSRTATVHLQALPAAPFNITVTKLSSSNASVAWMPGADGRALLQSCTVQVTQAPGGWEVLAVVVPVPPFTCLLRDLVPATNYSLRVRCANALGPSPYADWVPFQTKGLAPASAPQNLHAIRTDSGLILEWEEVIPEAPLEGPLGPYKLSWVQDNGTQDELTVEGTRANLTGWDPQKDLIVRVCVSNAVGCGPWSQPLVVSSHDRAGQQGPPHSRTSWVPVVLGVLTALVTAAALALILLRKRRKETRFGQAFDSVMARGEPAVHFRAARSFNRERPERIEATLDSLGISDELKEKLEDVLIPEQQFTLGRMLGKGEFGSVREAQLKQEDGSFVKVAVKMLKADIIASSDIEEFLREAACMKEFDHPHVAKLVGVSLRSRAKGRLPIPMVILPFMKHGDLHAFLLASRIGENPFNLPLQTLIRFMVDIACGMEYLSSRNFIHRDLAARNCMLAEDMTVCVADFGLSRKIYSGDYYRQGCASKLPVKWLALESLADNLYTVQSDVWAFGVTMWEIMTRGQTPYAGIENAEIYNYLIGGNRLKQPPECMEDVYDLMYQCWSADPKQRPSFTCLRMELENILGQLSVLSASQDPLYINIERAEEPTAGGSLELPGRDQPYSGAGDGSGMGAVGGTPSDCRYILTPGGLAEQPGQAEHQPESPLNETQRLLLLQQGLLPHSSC
T31 sequence (Q16832 22-855): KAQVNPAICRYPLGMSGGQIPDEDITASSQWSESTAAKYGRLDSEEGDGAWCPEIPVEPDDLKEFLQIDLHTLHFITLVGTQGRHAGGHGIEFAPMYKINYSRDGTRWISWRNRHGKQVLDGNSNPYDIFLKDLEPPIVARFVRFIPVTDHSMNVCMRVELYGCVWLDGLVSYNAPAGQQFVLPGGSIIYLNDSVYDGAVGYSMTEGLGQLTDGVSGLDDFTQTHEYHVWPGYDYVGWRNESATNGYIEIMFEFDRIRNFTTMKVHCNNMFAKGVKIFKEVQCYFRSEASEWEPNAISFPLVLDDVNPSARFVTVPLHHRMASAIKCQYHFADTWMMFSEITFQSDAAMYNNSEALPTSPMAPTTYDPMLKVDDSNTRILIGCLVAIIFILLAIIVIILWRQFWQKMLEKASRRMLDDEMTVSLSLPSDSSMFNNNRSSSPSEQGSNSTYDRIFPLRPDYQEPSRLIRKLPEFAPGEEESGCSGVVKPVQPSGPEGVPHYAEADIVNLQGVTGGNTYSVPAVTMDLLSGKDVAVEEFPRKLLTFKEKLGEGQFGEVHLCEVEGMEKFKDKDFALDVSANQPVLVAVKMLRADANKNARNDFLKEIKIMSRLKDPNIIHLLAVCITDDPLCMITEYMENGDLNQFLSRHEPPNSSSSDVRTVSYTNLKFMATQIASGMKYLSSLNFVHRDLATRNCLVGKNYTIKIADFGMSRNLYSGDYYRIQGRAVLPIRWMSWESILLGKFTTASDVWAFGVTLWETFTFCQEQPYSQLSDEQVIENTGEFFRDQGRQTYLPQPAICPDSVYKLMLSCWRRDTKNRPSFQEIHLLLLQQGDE
T37 sequence (P11362 22-822): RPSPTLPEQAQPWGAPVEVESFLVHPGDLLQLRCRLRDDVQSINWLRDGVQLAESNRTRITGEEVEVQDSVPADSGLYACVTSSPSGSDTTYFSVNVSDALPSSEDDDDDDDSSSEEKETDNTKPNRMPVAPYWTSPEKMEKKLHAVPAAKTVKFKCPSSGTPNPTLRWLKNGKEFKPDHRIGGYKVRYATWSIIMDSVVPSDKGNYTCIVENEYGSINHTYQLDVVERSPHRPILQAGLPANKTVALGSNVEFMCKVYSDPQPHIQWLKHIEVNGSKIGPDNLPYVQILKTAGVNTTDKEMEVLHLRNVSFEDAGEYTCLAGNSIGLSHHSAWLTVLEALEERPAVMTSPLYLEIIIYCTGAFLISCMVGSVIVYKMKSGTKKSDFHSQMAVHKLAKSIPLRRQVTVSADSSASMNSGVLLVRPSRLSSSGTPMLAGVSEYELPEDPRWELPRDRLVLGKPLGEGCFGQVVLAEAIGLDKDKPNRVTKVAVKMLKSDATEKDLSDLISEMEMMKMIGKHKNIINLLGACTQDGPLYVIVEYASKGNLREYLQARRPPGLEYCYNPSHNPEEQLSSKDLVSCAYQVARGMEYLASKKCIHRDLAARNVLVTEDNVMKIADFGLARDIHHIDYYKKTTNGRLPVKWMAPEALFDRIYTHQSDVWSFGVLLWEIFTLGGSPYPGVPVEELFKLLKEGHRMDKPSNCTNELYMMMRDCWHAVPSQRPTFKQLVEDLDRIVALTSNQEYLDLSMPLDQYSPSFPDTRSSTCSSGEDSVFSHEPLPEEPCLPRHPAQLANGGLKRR
T8 sequence (Q9UM73 19-1620): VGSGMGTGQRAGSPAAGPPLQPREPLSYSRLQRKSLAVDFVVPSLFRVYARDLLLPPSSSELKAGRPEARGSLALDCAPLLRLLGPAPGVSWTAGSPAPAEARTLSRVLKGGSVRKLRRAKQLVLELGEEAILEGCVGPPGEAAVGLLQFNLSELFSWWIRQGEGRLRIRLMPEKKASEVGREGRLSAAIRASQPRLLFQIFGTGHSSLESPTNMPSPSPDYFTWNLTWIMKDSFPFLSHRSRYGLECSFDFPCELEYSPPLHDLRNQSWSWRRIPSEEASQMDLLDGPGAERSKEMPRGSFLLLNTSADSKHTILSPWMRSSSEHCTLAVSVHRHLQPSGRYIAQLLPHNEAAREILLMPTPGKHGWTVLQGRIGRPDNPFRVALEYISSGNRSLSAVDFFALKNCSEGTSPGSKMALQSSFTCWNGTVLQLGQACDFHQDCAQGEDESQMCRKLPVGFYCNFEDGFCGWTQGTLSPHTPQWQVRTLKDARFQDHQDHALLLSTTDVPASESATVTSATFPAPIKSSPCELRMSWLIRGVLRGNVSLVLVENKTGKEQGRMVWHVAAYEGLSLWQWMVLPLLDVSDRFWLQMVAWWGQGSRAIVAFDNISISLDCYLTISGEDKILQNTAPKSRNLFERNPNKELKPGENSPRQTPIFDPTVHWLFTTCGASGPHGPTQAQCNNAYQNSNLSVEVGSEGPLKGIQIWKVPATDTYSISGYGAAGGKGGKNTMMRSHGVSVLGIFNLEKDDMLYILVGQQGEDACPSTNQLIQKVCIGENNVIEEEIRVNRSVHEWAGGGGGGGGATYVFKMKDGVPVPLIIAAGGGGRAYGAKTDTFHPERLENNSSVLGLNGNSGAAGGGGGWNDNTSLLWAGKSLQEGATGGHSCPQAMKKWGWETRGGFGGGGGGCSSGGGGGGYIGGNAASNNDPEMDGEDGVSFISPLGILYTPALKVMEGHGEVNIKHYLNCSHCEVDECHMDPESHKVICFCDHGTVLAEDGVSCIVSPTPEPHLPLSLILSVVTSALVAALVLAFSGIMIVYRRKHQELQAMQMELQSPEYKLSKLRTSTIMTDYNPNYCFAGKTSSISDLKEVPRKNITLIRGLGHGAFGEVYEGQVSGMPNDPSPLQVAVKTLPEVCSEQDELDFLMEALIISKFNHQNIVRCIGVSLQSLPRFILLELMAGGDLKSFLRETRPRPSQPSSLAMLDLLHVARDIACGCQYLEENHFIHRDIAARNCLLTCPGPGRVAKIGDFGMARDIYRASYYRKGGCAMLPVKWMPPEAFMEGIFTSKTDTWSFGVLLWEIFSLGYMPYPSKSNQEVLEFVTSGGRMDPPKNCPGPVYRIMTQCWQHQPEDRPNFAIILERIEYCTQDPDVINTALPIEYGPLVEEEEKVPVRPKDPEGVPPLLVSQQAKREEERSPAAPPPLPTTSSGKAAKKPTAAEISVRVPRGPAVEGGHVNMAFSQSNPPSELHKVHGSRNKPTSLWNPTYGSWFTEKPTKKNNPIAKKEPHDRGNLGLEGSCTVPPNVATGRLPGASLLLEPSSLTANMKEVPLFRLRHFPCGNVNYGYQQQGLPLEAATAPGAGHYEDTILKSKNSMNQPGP

Cc1c(-c2cnn(C)c2)nn(-c2ccccc2)c1NC(=O)Nc1cc(C(F)(F)F)nn1-c1ccccc1 [Example 3, 1-(1′,4-dimethyl-1-phenyl-1H,1′H-[3,4′-bipyrazol]-5-yl)-3-(1-phenyl-3-(trifluoromethyl)-1H-pyrazol-5-yl)urea]
Avg POC (GRK5): 84 POC | Avg POC (MSK2): 119.5 POC | Avg POC (PTK5): 102 POC | Avg POC (DAPK1): 137.5 POC | Avg POC (CSK): 137.5 POC | Avg POC (BrSK1): 127 POC | Avg POC (IRR): 99.5 POC | Avg POC (ALK): 110 POC | Avg POC (IKKbeta): 123 POC | Avg POC (BTK): 123 POC | Avg POC (CDK3/cyclinE): 103 POC | Avg POC (MST2): 102.5 POC | Avg POC (Rse): 106.5 POC | IC50 [1]: < 100 nM | Avg POC (LKB1): 95.5 POC | Avg POC (DRAK1): 129 POC | Avg POC (Plk2): 106 POC | Avg POC (PKCeta): 94.5 POC | Avg POC (NEK2): 125.5 POC | Avg POC (MuSK): 82.5 POC | Avg POC (Met): 129 POC | Avg POC (CK2alpha2): 102.5 POC | Avg POC (PRKG1alpha): 108 POC | Avg POC (eEF-2K): 148.5 POC | Avg POC (VRK2): 96.5 POC | Avg POC (GSK3beta): 195 POC | Avg POC (GRK7): 104.5 POC | Avg POC (ALK4): 104.5 POC | Avg POC (ULK3): 90.5 POC | Avg POC (MKK7beta): 143.5 POC | Avg POC (DDR2): 98 POC | Avg POC (p38delta): 92.5 POC | Avg POC (NEK3): 105.5 POC | Avg POC (CDK9/cyclinT1): 107.5 POC | Avg POC (Rsk2): 134 POC | activity against off-target kinases (off-target kinases): largely inactive | Avg POC (PAK5): 145.5 POC | Avg POC (FGFR1): 96 POC | Avg POC (Fgr): 118 POC | Avg POC (EphB4): 116 POC

Source: US9809578B2, “Pyrazolyl urea, thiourea, guanidine and cyanoguanidine compounds as trkA kinase inhibitors” (Array BioPharma Inc., priority 2012, dated 2017)
